Where two headings read alike, the source gives them in different places.
Columns and labels:
[1] = Experimental: Toxicity Studies: 4-6 weeks old female BNX mice were treated with chemotherapeutic agents of multiple classes as monotherapy or in combination with carfilzomib. Two weeks toxicity studies were performed at doses and dose schedules as mentioned in the figure legend. Toxicity was measured as body weight loss three times a week.
The dose schedule as shown in FIG. 2A was Doxil day 1 (iv), after one hour Compound 1 day 1, 2 (iv).
The dose schedule as shown in FIG. 5A was docetaxel day 1 (iv), after one hour Compound 1 day 1, 2 (iv).

[2] = test system: RL tumors; experiment: RL lymphoma xenograft, Example 2 (FIG. 9); format: in vivo, BNX mice
Experimental: (§1) Statistical significance was achieved when p<0.05.
(§2) The effect of the combination of Compound 1 (3 mg/kg) and vorinostat (50 mg/kg) (n=8/group) on established RL tumors is shown in FIG. 9 (arrow indicates start of dosing period). The effect of the combination of Compound 1 (3 mg/kg) and vorinostat (50 mg/kg) (n=8/group) on established ES2 tumors. **, P<0.01; and ***, P<0.001 vs monotherapy and vehicle is shown in FIG. 10 (arrow indicates start of dosing period).

[3] = test system: relapsed multiple myeloma patients; experiment: Phase Ib dose escalation study of carfilzomib plus lenalidomide and low-dose dexamethasone; format: in vivo; details: preliminary
Description: Within the first three cohorts, seventeen patients were evaluable for response and toxicity.

[4] = test system: HT29 colorectal xenograft; experiment: HT29 colorectal xenograft model (FIG. 3)
Experimental: (§3) Xenograft studies: Tumors were established by subcutaneous (s.c.) injection of cell lines (passage number <9 and viability >95% at the time of implantation) in the right flank of BNX mice (n=8/9 per group). RL (0.1 mL) cell suspensions containing 1×10^7 cells. 5×10^6 cell suspension (0.1 mL) were injected in case of HT-29, ES2 and A549 cells. Mice were randomized into treatment groups and dosing initiated when tumors size was approximately 100 mm^3. In all treatment groups, tumors were measured three times weekly by recording the longest perpendicular diameters and tumor volumes were calculated using the equation V (mm^3)=(length×width^2)/2.
(§4) Statistical analysis: For comparisons of treatment groups, a two-way ANOVA followed by Bonferroni post hoc analysis using GraphPad Prism Software (version 4.01) was performed. Statistical significance was achieved when p<0.05.

[5] = test system: A549 non-small cell lung cancer xenograft; experiment: A549 non-small cell lung cancer xenograft model (FIG. 4, 6, 7); format: in vivo, BNX mice
Experimental: as §3, §4

[6] = test system: RL human lymphoma cells; experiment: RL human lymphoma xenograft, Example 1 (FIG. 1); format: in vivo, Immunocompromised mice (BNX); details: Compound 1 IV Days 1 and 2 each week + SAHA IP Days 1-5 each week; two-way ANOVA, Bonferroni
Experimental: Immunocompromised mice (BNX, Charles River Laboratories) were challenged with subcutaneous administration of RL human lymphoma cells (1×10^7/mouse) on the right flank in a total volume of 0.1 mL phosphate buffered saline (PBS). When tumors were approximately 50 mm^3 in size (as indicated by the arrow in FIG. 1), mice were randomized to treatment groups (9 mice/group). Compound 1 was administered intravenously (IV) in a solution of 10% (w/v) sulfobutylether-betacyclodextrin in aqueous 10 mM citrate buffer pH 3.5. Administration was given on Days 1 and 2 each week. SAHA was formulated in 100% DMSO and administered intraperiotoneally (IP) on Days 1-5 each week. ***=P<0.001 (Compound 1+SAHA vs. Vehicle) by two-way ANOVA and Bonferroni post-hoc comparisons.

[7] = test system: MM1.S (multiply myeloma, dexamethasone sensitive) cells; experiment: Cell titer glo viability, combination index with melphalan (FIG. 11); format: cell-based; details: Compound 1 6.58 nM + melphalan 11.1, 7.4, 4.9 and 3.3 μM; melphalan pretreatment 24 hours, then Compound 1 24 hours
Experimental: Compound 1 was tested at 6.58 nM in combination with melphalan at four different doses: 11.1, 7.4, 4.9 and 3.3 μM. MM1.S (multiply myeloma, dexamethasone sensitive) cells were plated at 200,000 cells/mL in 45 μL then pretreated with melphalan for 24 hours. Compound 1 was then added and the cells were incubated for an additional 24 hours at 6.58 nM. A 1:1 ratio of Cell titer glo solution was then added to the cell samples and read for viability. Combination index values were calculated using the Calcusyn program where values <0.9=synergy, 0.9-1.0=additive and >1.1=antagonistic.

[8] = test system: ES2 tumors; experiment: ES2 ovarian xenograft (FIG. 10); format: in vivo, BNX mice; details: in combination with vorinostat (50 mg/kg), ovarian cancer model
Experimental: as §1, §2

[9] = combination of Compound 1 and vorinostat
[10] = combination Compound 1 (5 mg/kg) + Doxil (3 mg/kg)
[11] = combination Compound 1 at MTD (5 mg/kg) + docetaxel (5 mg/kg), FIG. 6
[12] = combination Compound 1 at sub-MTD (3 mg/kg) + sub-MTD docetaxel (5 mg/kg), FIG. 7

CC(=O)O[C@@]12CO[C@@H]1C[C@H](O)[C@@]1(C)C(=O)[C@H](O)C3=C(C)[C@@H](OC(=O)[C@H](O)[C@@H](NC(=O)OC(C)(C)C)c4ccccc4)C[C@@](O)([C@@H](OC(=O)c4ccccc4)[C@H]21)C3(C)C [docetaxel, reference compound]
MTD ([1]; docetaxel in combination with carfilzomib, docetaxel day 1 (iv), Compound 1 day 1, 2 (iv)): 10 mg/kg

CC(C)C[C@H](NC(=O)[C@H](CCc1ccccc1)NC(=O)CN1CCOCC1)C(=O)N[C@@H](Cc1ccccc1)C(=O)N[C@@H](CC(C)C)C(=O)[C@@]1(C)CO1 [Compound 1, carfilzomib]
RL tumor growth, p vs. Compound 1 or vorinostat alone [2, 9]: < 0.01
RL tumor growth, p vs. control [2, 9]: < 0.001
lymphoma (RL) tumor growth ([2]; combination with vorinostat, compared to vehicle controls or either single agent, Compound 1 3 mg/kg, vorinostat 50 mg/kg): significant reduction
anti-tumor effect of combination ([2]; in combination with vorinostat, lymphoma model): synergistic anti-tumor effect
maximum tolerated dose (MTD) ([3]; first three cohorts): not yet reached
Responses [3]: durable
anti-tumor effect of combination ([4]; Compound 1 and Doxil at sub-MTD doses, solid tumor model): synergistic anti-tumor effect
tumor burden ([4]; Compound 1 and Doxil combination, HT-29 xenograft model): significantly reduced tumor burden
anti-tumor activity ([4]; Compound 1 at MTD (5 mg/kg) and sub-MTD of Doxil (3 mg/kg)): increased anti-tumor activity
tumor size, p vs. Doxil alone [4, 10]: < 0.01
tumor size, p vs. control or carfilzomib alone [4, 10]: < 0.001
tumor size, p vs. control or Doxil alone [5, 10]: < 0.001
tumor size, significance vs. carfilzomib alone [5, 10]: No significance
tumor size, p vs. carfilzomib alone [5, 11]: < 0.05
tumor size, p vs. control [5, 11]: < 0.001
tumor size, p vs. carfilzomib and docetaxel [5, 12]: < 0.01
tumor size, p vs. control [5, 12]: < 0.001
A549 tumor growth ([5]; combination with docetaxel, compared to vehicle controls or either single agent): significant reduction
anti-tumor effect of combination ([5]; in combination with docetaxel at sub-MTD doses, human lung cancer model): synergistic anti-tumor effect
tumor volume, P (Compound 1+SAHA vs. Vehicle) [6]: < 0.001
combination effect (combination index, Calcusyn) [7]: synergistic and additive effects
anti-tumor property of combination [8]: effective anti-tumor property
MTD ([1]; carfilzomib QDx2 (iv)): 5 mg/kg
